Assay [1] addresses T1, Mcl-1 protein (Homo sapiens, UniProt Q07820).
T1 construct: human Mcl-1 (residues 171–323); His tag (pHis-TEV vector) (N, cleaved yes); made in house; host or cells: E. coli BL21 (DE3)
The experiment in a line: FP-based competitive binding assay with fluorescent labelled Bid BH3 peptide. To be noted: for IC50: competition with fluorescent Bid probe 2 nM, 20 nM Mcl-1 for purchased compounds, 10 nM for synthesized library; for Ki: calculated from FP IC50. The method, then:
(§1) FP-based binding assays were developed and optimized to determine the binding affinities of inhibitors to the recombinant Mcl-1, Bcl-2, Bcl-xL, and Bfl-1, proteins. […] The fluorescent Bid probe was fixed at 2 nM for all assays, except for Bfl-1, where 1 nM was used. 5 μL of the tested compound in DMSO and 120 μL of protein/probe complex in the assay buffer were added to assay plates (Corning #3792), incubated at room temperature for 3 h, and the polarization values (mP) were measured at an excitation wavelength of 485 nm and an emission wavelength of 530 nm using the plate reader Synergy H1 Hybrid, BioTek. IC50 values were determined by nonlinear regression fitting of the competition curves (GraphPad Prism 6.0 Software). The Ki values were calculated as described previously.
(§2) 1. List of compounds purchased from vendors
(§3) Compound s 5, 6, 7, 8 and S3, S4, S5, S6 S7, S8, S9, S10, S17 were purchased from […]
(§4) Compound s 9, 10, 11 and S11, S12, S13 were purchased from I nterbioscreen […]
His-tagged proteins containing human Mcl-1 (residues 171–323), the isoform 2 construct of the human Bcl-2 [Bcl2-2 construct for protein production starts with the Bcl2 sequence of 1-34 a a, followed by the Bcl-xL seq uence of 35-50 aa, and ends with the Bcl-2 sequenc e of 92-202aa.], Bcl-xL (Human Bcl-xL protein, which has an internal deletion for the 45 -85 amino acid residues and a C -terminal truncation for the amino acid residues 212-233), and Bf l-1 (residues 1-151), were expres sed from the pHis -TEV vector (a modified pET vector) in E. coli BL21 (DE3) cells. Cells were grown at 37 °C in 2×YT containing antibiotics to an OD600 density of 1.5, 1 and 0.8 for Mcl-1, Bcl-xL and Bcl-2 respectively. Protein expression wa s induced by 0 .4 mM IPTG at 20 °C overnight for all proteins except for Bf l-1 which was e xpressed at 3 7 °C for four hours . Cells were lysed in 20 mM HEPES pH 7.5, 200 mM NaCl, 0.1% βME with Leupeptin/Aprotinin (Mcl-1), 25mM Tris pH 8.5, 200mM NaCl (Bcl-2), 50mM Tris pH 7.5, 200 mM NaCl (Bcl-xL) and 50 mM Tris pH 8, 500 mM NaCl, 0. 1% βME with Leupeptin/Aprotinin (Bf l-1). All […]
proteins were purified from the soluble fraction using Ni-NTA resin (QIAGEN), following the manufacturer’s instructions. For purification of TEV-cleaved protein, the amino-terminal His tag was cleaved by incubation with TEV protease and the protein was further purified by anion exchange (Source Q) and gel filtration chromatography (Superdex 75, Amersham Biosciences) in 20mM HEPES pH 7.0, 50 mM NaCl (Mcl-1), […]
NaCl, 0.1% βME (Bcl-xL) and 25 mM Tris pH 7.5, 150 mM NaCl, 25% Glycerol, 0.1% βME ( Bf l-1). His-tagged Mcl-1 protein was used for TR-FRET assay and HSQC-NMR.
His-TEV cleaved Mcl-1, Bcl-2, Bcl-xL, and Bf l-1 were used in fluorescent polarization and surface plasmon resonance binding assays.
Mutant Mcl-1 protein wa s prepared by the QuikChange site -directed mutagenesi s method (Stratagene) , where Arg263 was mutated to Ala. The R263A expression pla smid was transformed into Rosetta2 DE3 cells and purified by the same method as the wildtype protein. Cultures were grown to an OD 600 of 1. 5 at 37 °C in Terrific Broth, induced with 0. 4 mM IPTG, and express ed overnight at 20 °C. The follow-up purification was performed the same way as was for Mcl-1 wild-type recombinant

Assay [2] has as its target T1, Mcl-1 protein. Briefly: SPR-based solution competitive binding assay, immobilized biotin-labelled Bim BH3 peptide. The conditions noted are these: Mcl-1 20 nM; competition with immobilized Bim BH3 peptide. The method, then:
The solution competitive SPR-based assay was performed on Biacore 2000 in a similar way as was already reported. Briefly, N terminal biotin-labelled Bim BH3 peptide (141–166 amino acids) was immobilized on streptavidin (SA) chip giving a density of 800 RU (Response Units). The pre-incubated Mcl-1 protein (20 nM) with tested small-molecule inhibitors for at least 30 min was injected over the surfaces of the chip using assay buffer HBS-P (GE, #BR100368). Response units were measured at 15 s in the dissociation phase, and IC50 values were determined by nonlinear least-squares analysis using GraphPad Prism 6.0 software.

For another assay, the target named is T2, Bfl-1 (Homo sapiens, UniProt Q16548).
T2 construct: Bf l-1 (residues 1-151); His tag (pHis-TEV vector) (N, cleaved yes); made in house; host or cells: E. coli BL21 (DE3)
T2 sequence (Q16548 1-151): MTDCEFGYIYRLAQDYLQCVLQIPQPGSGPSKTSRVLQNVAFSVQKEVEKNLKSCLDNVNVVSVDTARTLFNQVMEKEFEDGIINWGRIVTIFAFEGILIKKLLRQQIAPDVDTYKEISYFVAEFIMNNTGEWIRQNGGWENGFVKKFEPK
The experiment in a line: FP-based competitive binding assay with FAM-Bid. The conditions noted are these: Bfl-1. The method, then:
as §1, §2, §3, §4
His-tagged proteins containing human Mcl-1 (residues 171–323), the isoform 2 construct of the human Bcl-2 [Bcl2-2 construct for protein production starts with the Bcl2 sequence of 1-34 a a, followed by the Bcl-xL seq uence of 35-50 aa, and ends with the Bcl-2 sequenc e of 92-202aa.], Bcl-xL (Human Bcl-xL protein, which has an internal deletion for the 45 -85 amino acid residues and a C -terminal truncation for the amino acid residues 212-233), and Bf l-1 (residues 1-151), were expres sed from the pHis -TEV vector (a modified pET vector) in E. coli BL21 (DE3) cells. Cells were grown at 37 °C in 2×YT containing antibiotics to an OD600 density of 1.5, 1 and 0.8 for Mcl-1, Bcl-xL and Bcl-2 respectively. Protein expression wa s induced by 0 .4 mM IPTG at 20 °C overnight for all proteins except for Bf l-1 which was e xpressed at 3 7 °C for four hours . Cells were lysed in 20 mM HEPES pH 7.5, 200 mM NaCl, 0.1% βME with Leupeptin/Aprotinin (Mcl-1), 25mM Tris pH 8.5, 200mM NaCl (Bcl-2), 50mM Tris pH 7.5, 200 mM NaCl (Bcl-xL) and 50 mM Tris pH 8, 500 mM NaCl, 0. 1% βME with Leupeptin/Aprotinin (Bf l-1). All

A further assay concerns Mcl-1/Noxa interaction. The arrangement: method as in PubChem BioAssay AID 1417. The conditions noted are these: Dose Response Confirmation for Mcl-1/Noxa Interaction Inhibitors; ref PubChem BioAssay AID 1417; cited from earlier work.
Assay [3] has as its system Eµ-myc lymphoma cells overexpressing Bcl-2. The experiment in a line: Eµ-myc lymphoma cell viability, flow cytometry. It is filed as cell-based, mice. To be noted: increasing concentrations. Here is the method: (§5) MEF cells, including wild-type, Bax/Bak double knockout, Bax−/− single knockout, and Bak−/− single knockout were tested and characterized (Supplementary Fig. S3). The cells were cultured in DMEM (Life Technologies), supplemented with 10% fetal bovine serum (FBS) (Thermo Scientific HyClone) and 1% Penicillin/streptomycin solution (Life Technologies). The retrovirally transduced lymphoma cells isolated from Eμ-myc transgenic mice were provided by Ricky W. Johnstone at the University of Melbourne, Melbourne, Australia and cultured as previously described[37],[65].
(§6) The Mcl-1, Bcl-2, and Bcl-xL retroviral transduced lymphoma Eμ-myc cells were seeded in 12-well plates at 0.5 × 10^6 cells/well. […] The cells were harvested and stained with violet LIVE/DEAD Fixable Dead Cell Stain Kit (Invitrogen) according to manufacturer’s protocol. The percentage of fluorescent positive cells was determined by flow cytometry and calculated using WinList 3.0.

The subject of assay [4] is Eµ-myc lymphoma cells overexpressing Mcl-1. The experiment in a line: Eµ-myc lymphoma cell viability, flow cytometry. The conditions noted are these: increasing concentrations, 15 h. The assay is classed as cell-based, mice. Here is the method: as §5, §6
Assay [5] has as its system Bak−/− single knockout MEFs. Briefly: MEF cell death, propidium iodide flow cytometry. It is filed as cell-based, mouse. To be noted: increasing concentrations, 15 h. Here is the method: as §5
(§7) MEFs were seeded in 24-well plates at 0.5 × 10^5 cells/well, left to adhere for 5 hours and then treated for 15 hours with increasing concentrations of the compounds. The cells were harvested, washed with phosphate-buffered saline (PBS) and stained with 0.025 mg/ml propidium iodide (MP Biomedicals). The percentage of the propidium iodide positive population was determined by flow cytometry and calculated using WinList 3.0.

The subject of assay [6] is Bax/Bak double knockout (DKO) MEFs. Briefly: MEF cell death, propidium iodide flow cytometry. It is filed as cell-based, mouse. To be noted: increasing concentrations, 15 h. The method, then:
as §5, §7

The test system of assay [7] is Bax−/− single knockout MEFs. The experiment in a line: MEF cell death, propidium iodide flow cytometry. The assay is classed as cell-based, mouse. The conditions noted are these: increasing concentrations, 15 h. Here is the method:
as §5, §7

Another assay relates to wild-type MEFs. The experiment in a line: MEF cell death, propidium iodide flow cytometry. The assay is classed as cell-based, mouse. To be noted: increasing concentrations, 15 h. Here is the method:
as §5, §7

Assay [8] relates to Eµ-myc lymphoma cells overexpressing Bcl-xL. Briefly: Eµ-myc lymphoma cell viability, flow cytometry. To be noted: increasing concentrations, 15 h. It is filed as cell-based, mice. The method, then: as §5, §6

T1 sequence (Q07820 171-323): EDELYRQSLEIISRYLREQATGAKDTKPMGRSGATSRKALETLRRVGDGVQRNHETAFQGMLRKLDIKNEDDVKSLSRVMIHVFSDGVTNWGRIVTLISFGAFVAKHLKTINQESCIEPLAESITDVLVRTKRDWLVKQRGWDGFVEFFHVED

As for `CCOc1ccc(C(=O)Nc2cc(NC(=O)c3ccc(OCC)c(Cl)c3)cc(C(=O)O)c2)cc1Cl` [Compound 3], the IC50 at Mcl-1 protein [1] was 9.6 ± 2.5 µM; on Mcl-1 protein [2], 21.3 ± 5.4 µM; on Bfl-1, 2.5 ± 0.2 µM; in the assay with Mcl-1/Noxa interaction, 14.3 µM.

On to `Cc1ccc2nc(N3C(=O)C(O)=C(C(=O)c4cc5ccccc5o4)C3c3cccs3)sc2c1` (centres unmarked) [Compound 4], for which the IC50 was 2.4 ± 1.1 µM at Mcl-1 protein [1], 4.5 ± 0.3 µM at Mcl-1 protein [2] and 2.4 µM with Mcl-1/Noxa interaction.

Turning to `CC(C)c1ccc(NC(=O)CSc2nnc(-c3ccco3)c(-c3ccco3)n2)cc1` [Compound 29], at Mcl-1 protein [1], the Ki is 0.5 ± 0.2 µM and the IC50 was 2.3 ± 0.7 µM. Also, the IC50 on Mcl-1 protein [2] is 11.6 ± 1.1 µM. The “effect on Eµ-myc cells overexpressing Bcl-2” value in [3] is “selectivity”. Moreover, in [4], the “killing of Eµ-myc cells overexpressing Mcl-1” value is on record as “killing”.

Consider `CC(C)c1cccc(NC(=O)CSc2nnc(-c3ccco3)c(-c3ccco3)n2)c1` [Compound 38], for which, on Mcl-1 protein [1], the Ki is 0.6 ± 0.1 µM and the 50% inhibitory concentration (IC50) turned out to be 2.6 ± 0.3 µM. For the same compound, in [3], the “effect on Eµ-myc cells overexpressing Bcl-2” value is on record as “selectivity”. Also, the “killing of Eµ-myc cells overexpressing Mcl-1” value in assay [4] is listed as “killing”.

As for `Cc1c(-c2c(-c3ccc(F)o3)sc3ncnc(OC(Cc4ccccc4OCc4ccnn4CC(F)(F)F)C(=O)O)c23)ccc(OCCN2CCN(C)CC2)c1Cl` (centres unmarked) [Compound S63845, reference compound], in assay [5], the “cell death in Bak−/− MEFs” value was “not”. The “cell death in Bax/Bak DKO MEFs” value in assay [6] is “not”. Besides, the “cell death in Bax−/− MEFs” value in assay [7] is “not”. Besides, the “cell death in wild-type MEFs” value with wild-type MEFs is given as “induces cell death”. Besides, the “effect on Eµ-myc cells overexpressing Bcl-2” value in assay [3] was “sparing”. In addition, in assay [8], the “effect on Eµ-myc cells overexpressing Bcl-xL” value is on record as “sparing”. Besides, the “killing of Eµ-myc cells overexpressing Mcl-1” value in [4] was “selectively killing”.

Values taken from paper PMC6033896, “Discovery of Mcl-1 inhibitors from integrated high throughput and virtual screening” (Scientific Reports, 2018).
